Measurements as given in patent US12077503B2, “Substituted cyclic amides and their use as herbicides” (FMC CORPORATION, priority 2015, dated 2024).
Read-outs that look alike come from different tables or passages of the source.

Columns and labels:
Format in all cases: in vivo
[1] = test system: ragweed (common ragweed, Ambrosia elatior); test: Test A postemergence; settings: Ambrosia artemisiifolia, post-emergence, 240 h; for pest or weed control at 125 g/ha: 125 g ai/ha, read-out: Ragweed plant response rating (0 to 100 scale); for pest or weed control at 500 g/ha: 500 g ai/ha, visual injury, 0 to 100 scale (0 no effect, 100 complete control), approx. 10 d, read-out: Plant response rating, Ragweed
Procedure, shortened: (§1)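 Visual injury scores from 0, no effect, to 100, complete control, were assigned versus untreated controls roughly 10 d after treatment in the greenhouse. Test chemicals, formulated with surfactant in a non-phytotoxic solvent, were applied to planted seeds as a preemergence soil spray or postemergence to one- to two-leaf plants 2 to 10 cm tall, in loam–sand soil.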

[2] = test system: barnyardgrass (Echinochloa crus-galli); test: Test A postemergence; settings: Echinochloa crus-galli, post-emergence, 240 h; for pest or weed control at 125 g/ha: 125 g ai/ha; for pest or weed control at 500 g/ha: 500 g ai/ha, visual injury, 0 to 100 scale (0 no effect, 100 complete control), approx. 10 d, read-out: Plant response rating, Barnyardgrass
Procedure, shortened: as §1

[3] = test system: Kochia (Kochia scoparia); test: Test A postemergence; settings: Bassia scoparia, post-emergence, 240 h; for pest or weed control at 125 g/ha: 125 g ai/ha, read-out: Kochia plant response rating (0 to 100 scale); for pest or weed control at 500 g/ha: 500 g ai/ha, visual injury, 0 to 100 scale (0 no effect, 100 complete control), approx. 10 d, read-out: Plant response rating, Kochia
Procedure, shortened: as §1

[4] = test system: blackgrass (Alopecurus myosuroides); test: Test A postemergence; settings: Alopecurus myosuroides, post-emergence, 240 h; for pest or weed control at 125 g/ha: 125 g ai/ha, read-out: Blackgrass plant response rating (0 to 100 scale); for pest or weed control at 500 g/ha: 500 g ai/ha, visual injury, 0 to 100 scale (0 no effect, 100 complete control), approx. 10 d, read-out: Plant response rating, Blackgrass
Procedure, shortened: as §1

[5] = test system: giant foxtail (Setaria faberii); test: Test A postemergence; settings: Setaria faberi, post-emergence, 240 h; for pest or weed control at 125 g/ha: 125 g ai/ha, read-out: Foxtail, Giant plant response rating (0 to 100 scale); for pest or weed control at 500 g/ha: 500 g ai/ha, visual injury, 0 to 100 scale (0 no effect, 100 complete control), approx. 10 d, read-out: Plant response rating, Foxtail, Giant
Procedure, shortened: as §1

[6] = test system: ragweed (common ragweed, Ambrosia elatior); test: Test A preemergence; settings: Ambrosia artemisiifolia, pre-emergence, 240 h, preemergence, 0 to 100 scale where 0 is no effect and 100 is complete control, read-out: Ragweed plant response rating; for pest or weed control at 125 g/ha: 125 g ai/ha, visual injury rating, approximately 10 d; for pest or weed control at 500 g/ha: 500 g ai/ha
Procedure, shortened: as §1

[7] = test system: barnyardgrass (Echinochloa crus-galli); test: Test A preemergence; settings: Echinochloa crus-galli, pre-emergence, 240 h, preemergence, 0 to 100 scale where 0 is no effect and 100 is complete control, read-out: Barnyardgrass plant response rating; for pest or weed control at 125 g/ha: 125 g ai/ha, visual injury rating, approximately 10 d; for pest or weed control at 500 g/ha: 500 g ai/ha
Procedure, shortened: as §1

[8] = test system: pigweed (Amaranthus retroflexus); test: Test A preemergence; settings: Amaranthus retroflexus, pre-emergence, 240 h, preemergence, 0 to 100 scale where 0 is no effect and 100 is complete control, read-out: Pigweed plant response rating; for pest or weed control at 125 g/ha: 125 g ai/ha, visual injury rating, approximately 10 d; for pest or weed control at 500 g/ha: 500 g ai/ha
[9] = test system: Kochia (Kochia scoparia); test: Test A preemergence; settings: Bassia scoparia, pre-emergence, 240 h, preemergence, 0 to 100 scale where 0 is no effect and 100 is complete control, read-out: Kochia plant response rating; for pest or weed control at 125 g/ha: 125 g ai/ha, visual injury rating, approximately 10 d; for pest or weed control at 500 g/ha: 500 g ai/ha
Procedure, shortened: as §1

[10] = test system: giant foxtail (Setaria faberii); test: Test A preemergence; settings: Setaria faberi, pre-emergence, 240 h, preemergence, 0 to 100 scale where 0 is no effect and 100 is complete control, read-out: Foxtail, Giant plant response rating; for pest or weed control at 125 g/ha: 125 g ai/ha, visual injury rating, approximately 10 d; for pest or weed control at 500 g/ha: 500 g ai/ha
Procedure, shortened: as §1

[11] = test system: ryegrass, Italian (Italian ryegrass, Lolium multiflorum); test: Test A preemergence; settings: Lolium multiflorum, pre-emergence, 240 h, preemergence, 0 to 100 scale where 0 is no effect and 100 is complete control, read-out: Ryegrass, Italian plant response rating; for pest or weed control at 125 g/ha: 125 g ai/ha, visual injury rating, approximately 10 d; for pest or weed control at 500 g/ha: 500 g ai/ha
Procedure, shortened: as §1

[12] = test system: ducksalad (Heteranthera limosa); test: Test B flooded paddy test; settings: Heteranthera limosa, 250 g ai/ha, Flood; 0 to 100 scale where 0 is no effect and 100 is complete control; read-out: Ducksalad plant response rating
Procedure, shortened: (§2)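 Rating scale 0–100 (visual, vs untreated controls) after a 13–15 d greenhouse period; application to the flood layer, 3 cm above soil and maintained; plants at 2-leaf stage when treated.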

[13] = test system: sedge, umbrella (small-flower umbrella sedge, Cyperus difformis); test: Test B flooded paddy test; settings: Cyperus difformis, 250 g ai/ha, Flood; 0 to 100 scale where 0 is no effect and 100 is complete control; read-out: Sedge, Umbrella plant response rating
Procedure, shortened: as §2

[14] = test system: barnyardgrass (Echinochloa crus-galli); test: Test B flooded paddy test; settings: Echinochloa crus-galli, 250 g ai/ha, Flood; 0 to 100 scale where 0 is no effect and 100 is complete control; read-out: Barnyardgrass plant response rating
Procedure, shortened: as §2

[15] = test system: rice (Oryra sativa); test: Test B flooded paddy test; settings: Oryza sativa, 250 g ai/ha, Flood; 0 to 100 scale where 0 is no effect and 100 is complete control; read-out: Rice plant response rating
Procedure, shortened: as §2

[16] = postemergence, visual injury vs untreated controls after approx. 10 d, 0 = no effect, 100 = complete control
[17] = postemergence, visual injury vs untreated controls after approx. 10 d, 0 = no effect, 100 = complete control, read-out: Barnyardgrass plant response rating (0 to 100 scale)
[18] = Postemergence, visual rating about 10 d after treatment

SMILES	pest or weed control at 500 g/ha ([1]; Postemergence) [%]	pest or weed control at 500 g/ha ([2]; Postemergence) [%]	pest or weed control at 500 g/ha ([3]; Postemergence) [%]	pest or weed control at 500 g/ha ([4]; Postemergence) [%]	pest or weed control at 500 g/ha ([5]; Postemergence) [%]	pest or weed control at 125 g/ha [6] [%]	pest or weed control at 500 g/ha [6] [%]	pest or weed control at 125 g/ha [7] [%]	pest or weed control at 500 g/ha [7] [%]	pest or weed control at 125 g/ha [8] [%]	pest or weed control at 500 g/ha [8] [%]	pest or weed control at 125 g/ha [9] [%]	pest or weed control at 500 g/ha [9] [%]	pest or weed control at 125 g/ha [10] [%]	pest or weed control at 500 g/ha [10] [%]	pest or weed control at 125 g/ha [11] [%]	pest or weed control at 500 g/ha [11] [%]	pest or weed control at 250 g/ha [12] [%]	pest or weed control at 250 g/ha [13] [%]	pest or weed control at 250 g/ha [14] [%]	other results
Cc1cc([C@H]2CNC(=O)[C@@H]2C(=O)Nc2ccccc2S(C)(=O)=O)ccc1Cl [Compound 1246]	60	80	20	40	20	40	60	60	80	0	0	60	80	50	70	0	50	100	0	0	pest or weed control at 125 g/ha [1, 16]: 10%; pest or weed control at 125 g/ha [2, 17]: 50%; pest or weed control at 125 g/ha [3, 16]: 0%; pest or weed control at 125 g/ha [4, 16]: 0%; pest or weed control at 125 g/ha [5, 16]: 20%; pest or weed control at 250 g/ha [15]: 0%
CN1C[C@H](c2cccc(C(F)(F)F)c2)[C@@H](C(=O)Nc2ccc(F)cc2C(F)(F)F)C1=O [Compound 1250]	0	90	20	60	80	0	0	100	100	30	30	0	40	100	100	50	50	100	0	50	pest or weed control at 125 g/ha [1, 16]: 0%; pest or weed control at 125 g/ha [2, 17]: 70%; pest or weed control at 125 g/ha [3, 16]: 0%; pest or weed control at 125 g/ha [4, 16]: 20%; pest or weed control at 125 g/ha [5, 16]: 80%; pest or weed control at 250 g/ha [15]: 0%
CN1C[C@H](c2ccc(C(F)(F)F)cc2)[C@@H](C(=O)Nc2ccccc2)C1=O [Compound 1253]	0	100	70	50	90	40	60	90	100	50	80	80	80	100	100	20	60	100	0	40	pest or weed control at 125 g/ha [1, 16]: 0%; pest or weed control at 125 g/ha [2, 17]: 90%; pest or weed control at 125 g/ha [3, 16]: 60%; pest or weed control at 125 g/ha [4, 16]: 30%; pest or weed control at 125 g/ha [5, 16]: 80%; pest or weed control at 250 g/ha [15]: 0%
Cc1nc([C@H]2CN(C)C(=O)[C@@H]2C(=O)Nc2ccccc2F)cs1 [Compound 1280]	0	40	0	0	30	0	0	0	50	0	30	0	0	0	80	0	0	0	0	0	pest or weed control at 125 g/ha [1, 18]: 0%; pest or weed control at 125 g/ha ([2]; Postemergence, visual rating about 10 d after treatment, read-out: Barnyardgrass plant response rating (0 to 100 scale, 0 no effect, 100 complete control)): 0%; pest or weed control at 125 g/ha [3, 18]: 0%; pest or weed control at 125 g/ha [4, 18]: 0%; pest or weed control at 125 g/ha [5, 18]: 0%; pest or weed control at 250 g/ha [15]: 0%
